Here are results for 32 molecules from patent US9708338B2, “Aromatic heterocyclylamine derivative having TRPV4-inhibiting activity” (Shionogi & Co., Ltd., priority 2013, dated 2017).

In series [1] the target is T1, human TRPV4 (Homo sapiens, UniProt Q9HBA0).
T1 construct: expressed in transfected cells; host or cells: CHO-K1
In words: Test Example 1 Measurement of TRPV4 inhibitory activity (IC50 value). The class given is cell-based. The following applies: CHO-K1 cells stably expressing human TRPV4; Fluo 4-AM, FLIPR TETRA; final 1 μmol/L 4α-PDD. How it is done:
(§1) For each compound, TRPV4 inhibitory activity was measured using cells. (Method) TRPV4 inhibitory activity of the compound was evaluated in accordance with the following procedure.
(§2) (1) The TRPV4 inhibitory activity was measured using CHO-K1 cells stably expressing human TRPV4.
(2) In the day before the experimental day, frozen cell were thawed and washed with the culture medium (MEM-α, 10% FBS, 2 mmol/L GlutaMax, 50 unit Penicillin, 50 μg/mL Streptomycin, 20 mmol/L HEPES). Then cells were suspended in the culture medium.
(3) The 384-well plates which hTRPV4/CHO cells were seeded at densities of 4000 cells/well in the culture medium and cultured in a CO2 incubator in the presence of 5% CO2 at 37° C. for overnight was used as assay plates.
(4) The assay plate was washed with assay buffer (Hanks, 20 mmol/L HEPES, 2.5 mmol/L probenecid, pH 7.4), and the buffer were remained at 20 μL/well.
(5) 10 μl of dye loading buffer (9 μmol/L Fluo 4-AM, 0.09% Pluronic F-127/assay buffer) was added to each well, then the assay plate was incubated in a CO2 incubator in the presence of 5% CO2 at 37° C. for one hour (final 3 μmol/L Fluo4-AM).
(6) The assay plate was washed with the assay buffer, and the buffers were remained at 20 μL/well. Then the assay plate was incubated for 10 min at room temperature.
(7) 20 μL/well of diluted compound solution was dispensed to each well in the compound plate, and mixed with built-in Pipette and Mixer of the Fluorescence analysis system FLIPR TETRA (Molecular devices).
(8) After incubation for 5 min, 20 μL/well of 4α-PDD solution were applied to each well of assay plate and mixed with the FLIPR TETRA (final 1 μmol/L 4α-PDD).
(9) The fluorescent intensity was measured with FLIPR TETRA system for 5 min from the point of time addition the compound solution, at Ex 470-495 nm, Em 515-575 nm wavelength.
(§3) In addition, TRPV4 inhibitory activity (IC50 value) of a compound was evaluated according to the following procedure.
(§4) (10) In the presence of the compound, the difference between maximal and minimal of fluorescent intensity value for 5 min from just before addition of 4α-PDD solution was calculated, and it was referred as Max−Min value. Max−Min value of the compound A at 1 μmol/L was defined as 100% inhibitory activity, Max−Min value in the absence of the compound was defined as 0% inhibitory activity. The TRPV4 inhibitory activity of the compound was calculated by the following formula. Inhibition ratio=(1−(Max−Min value of the compound−100% inhibitory activity)/(0% inhibitory activity−100% inhibitory activity))×100
Herein, the compound A is the compound I-186 described in PCT/JP2013/058722.
(11) Inhibitory activity was calculated at 10 points with three fold serial dilution, in the final concentration of the compound from 10 μmol/L to 0.5 nmol/L, the IC50 value (nmol/L) was calculated by logistic approximation method.

Series [2] has as its target T1, human TRPV4. As to the kind of experiment: Test Example 2 Measurement of TRPV4 inhibitory activity (IC50 value). In kind it is cell-based. The conditions noted are these: CHO-K1 cells stably expressing human TRPV4; DMEM 10% FBS, 5000 cells/well; final 0.15 μmol/L 4α-PDD. The procedure:
as §1, §2
(2) In the day before the experimental day, frozen cell were thawed and washed with the culture medium (DMEM, 10% FBS, 2 mmol/L GlutaMax, 50 unit Penicillin, 50 μg/mL Streptomycin, 0.1 mmol/L Non-Essential Amino Acids, 25 mmol/L HEPES). Then cells were suspended in the culture medium. (3) The 384-well plates which hTRPV4/CHO cells were seeded at densities of 5000 cells/well in the culture medium and cultured in a CO2 incubator in the presence of 5% CO2 at 37° C. for overnight was used as assay plates. (4) The assay plate was washed with assay buffer (Hanks, 20 mmol/L HEPES, 2.5 mmol/L probenecid, pH7.4), and the buffer were remained at 20 μL/well. (5) 10 μl of dye loading buffer (3 μmol/L Fluo 4-AM, 0.03% Pluronic F-127/assay buffer) was added to each well, then the assay plate was incubated in a CO2 incubator in the presence of 5% CO2 at 37° C. for one hour (final 1 μmol/L Fluo4-AM). (6) The assay plate was washed with the assay buffer, and the buffers were remained at 20 μL/well. Then the assay plate was incubated for 10 min at room temperature. (7) 20 μL/well of diluted compound solution was dispensed to each well in the compound plate, and mixed with built-in Pipette and Mixer of the Fluorescence analysis system FLIPR TETRA (Molecular devices). (8) After incubation for 5 min, 20 μL/well of 4α-PDD solution were applied to each well of assay plate and mixed with the FLIPR TETRA (final 0.15 μmol/L 4α-PDD). (9) The fluorescent intensity was measured with FLIPR TETRA system for 5 min from the point of time addition the […], at Ex 470-495 nm, Em 515-575 nm wavelength.
as §3
as §4, with “of the above compound A” for “of the compound A”, “inhibitory activity))×100 (11) Inhibitory activity was calculated at 10 points with three fold serial dilution, in the final concentration of the compound from 10 μmol/L to 0.5 nmol/L, the IC50 value (nmol/L) was calculated by logistic approximation method. (Result)” for “inhibitory activity))×100”

A short description of series [3]: Test Example 7 Metabolism stability test. The class given is in vitro ADME. The following applies: 0.5 μmol/L of test compound, human liver microsomes 0.5 mg protein/mL, 37° C. How it is done: Using commercially available pooled human hepatic microsomes, a compound of the present invention was reacted for a constant time, and a remaining rate was calculated by comparing a reacted sample and an unreacted sample, thereby, a degree of metabolism in liver was assessed.
A reaction was performed (oxidative reaction) at 37° C. for 0 minute or 30 minutes in the presence of 1 mmol/L NADPH in 0.2 mL of a buffer (50 mmol/L Tris-HCl pH 7.4, 150 mmol/L potassium chloride, 10 mmol/L magnesium chloride) containing 0.5 mg protein/mL of human liver microsomes. After the reaction, 50 μL of the reaction solution was added to 100 μL of a methanol/acetonitrile=1/1 (v/v), mixed and centrifuged at 3000 rpm for 15 minutes. The compound of the present invention in the supernatant was quantified by LC/MS/MS, and a remaining amount of the compound of the present invention after the reaction was calculated, letting a compound amount at 0 minute reaction time to be 100%. Hydrolysis reaction was performed in the absence of NADPH and glucuronidation reaction was in the presence of 5 mmol/L UDP-glucuronic acid in place of NADPH, followed by similar operations. (Result) % inhibition was shown at 0.5 μmol/L of test compound.

T1 sequence (Q9HBA0 whole entry): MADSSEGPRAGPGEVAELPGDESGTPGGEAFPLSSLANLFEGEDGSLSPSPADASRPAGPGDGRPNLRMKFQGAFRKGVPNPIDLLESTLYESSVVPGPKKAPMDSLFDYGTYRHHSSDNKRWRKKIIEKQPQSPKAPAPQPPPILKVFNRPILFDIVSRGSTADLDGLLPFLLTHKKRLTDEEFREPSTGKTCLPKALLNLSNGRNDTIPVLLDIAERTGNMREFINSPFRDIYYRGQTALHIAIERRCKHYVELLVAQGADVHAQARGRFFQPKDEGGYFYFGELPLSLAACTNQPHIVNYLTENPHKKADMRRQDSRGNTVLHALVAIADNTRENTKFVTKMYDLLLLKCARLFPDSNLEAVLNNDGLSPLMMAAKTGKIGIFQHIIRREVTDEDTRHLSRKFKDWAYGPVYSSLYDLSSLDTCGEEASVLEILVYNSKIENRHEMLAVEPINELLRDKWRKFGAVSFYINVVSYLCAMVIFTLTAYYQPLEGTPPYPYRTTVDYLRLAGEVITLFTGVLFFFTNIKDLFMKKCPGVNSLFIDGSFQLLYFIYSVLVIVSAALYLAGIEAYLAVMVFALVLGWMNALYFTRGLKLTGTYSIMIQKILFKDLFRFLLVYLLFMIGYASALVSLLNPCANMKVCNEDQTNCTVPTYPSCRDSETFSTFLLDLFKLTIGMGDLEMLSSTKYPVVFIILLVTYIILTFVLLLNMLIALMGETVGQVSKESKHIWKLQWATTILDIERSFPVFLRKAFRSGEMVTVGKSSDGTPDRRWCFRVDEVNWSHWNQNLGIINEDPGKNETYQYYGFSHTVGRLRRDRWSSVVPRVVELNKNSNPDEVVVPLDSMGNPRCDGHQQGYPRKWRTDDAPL

The molecule `CC(O)c1nc(CC#N)c(-c2csc(Nc3ccc(CNc4ccc(Cl)cc4F)cn3)n2)s1` (centres unmarked) [Compound I-132] came in with an IC50 in series [1] of 14 nM. `Cc1nc(C(C)O)sc1-c1csc(Nc2ccc(C(=O)Nc3ccc(C#N)cc3F)cn2)n1` (centres unmarked) [Compound I-134] returned a half-inhibitory concentration (IC50) in series [1] of 6.8 nM. This IC50 is about 2.1-fold lower than that of the molecule before. The molecule `Cc1nc(C)c(-c2csc(Nc3ccc(C(=O)Nc4ccc(Oc5ccccc5)cc4)cn3)n2)s1` [Compound I-270] displayed an IC50 in series [1] of 26 nM. For the molecule `Cc1nc(C)c(-c2csc(Nc3ccc(C(=O)N4[C@@H]5CC[C@H]4COC5)cn3)n2)s1` [Compound I-662], half-maximal inhibition in series [2] (IC50) required 6.7 nM.

For the molecule `Cc1nc([C@H](C)O)sc1-c1csc(Nc2ccc(COC(C(F)(F)F)C(F)(F)F)cn2)n1` [Compound I-45], the IC50 in series [1] turned out to be 8.1 nM.

The molecule `Cc1nc(C)c(-c2csc(Nc3ccc(C(=O)NC(C)(C)C(F)(F)F)cn3)n2)s1` [Compound I-274] returned an IC50 in series [1] of 3.3 nM. Compared with the last molecule, the IC50 is about 2.5-fold lower. Consider `Cc1nc(C(C)O)sc1-c1csc(Nc2ccc(OC(F)(F)F)cn2)n1` (centres unmarked) [Compound I-140], for which, in series [1], the IC50 is 42 nM. Against the preceding molecule, the IC50 is about 13-fold higher. On to `CC(O)c1nc(C(O)CO)c(-c2csc(Nc3ccc(CNc4ccc(Cl)cc4F)cn3)n2)s1` (centres unmarked) [Compound I-69], for which, in series [3], the “Percent of compound remaining after 30 min incubation” value amounted to 106%. Consider `Cc1nc([C@H](C)O)sc1-c1csc(Nc2ccc3c(n2)CCCC3Nc2ccc(Cl)cc2F)n1` (some centres unmarked) [Compound I-10], for which, in series [1], the IC50 came to 14 nM. This counts as double-digit nanomolar.

In turn, `Cc1nc(C)c(-c2csc(Nc3ccc(C(=O)Cc4ccc(Cl)cc4)cn3)n2)s1` [Compound I-13] displayed an IC50 in series [1] of 6.4 nM.

`Cc1nc(C)c(-c2csc(Nc3ccc(CNC4(C(F)(F)F)CCCC4)cn3)n2)s1` [Compound I-228] yielded an IC50 in series [1] of 1.7 nM.

In series [1], `Cc1nc(C)c(-c2csc(Nc3ccc(C(=O)Nc4cccnc4)cn3)n2)s1` [Compound I-257] displayed an IC50 of 14 nM.

Consider `Cc1nc(C)c(-c2c[nH]c(Nc3ccc(CNc4ccc(Cl)cc4F)cn3)n2)s1` [Compound I-41], for which inhibition in series [1] was half-maximal at 42 nM (IC50). Same read-out and setting: under `Cc1nc(C)c(-c2csc(Nc3ccc(CN(CC(C)C)c4ccc(Cl)cc4F)cn3)n2)s1` [Compound I-200] stands 2.5 nM; under `Cc1nc(C(C)O)sc1-c1csc(Nc2ccc(CCNc3ccc(Cl)cc3F)cn2)n1` (centres unmarked) [Compound I-150], 30 nM. Take `Cc1nc(C)c(-c2csc(Nc3ccc(CNc4ccc(Cl)cc4F)cn3)n2)o1` [Compound I-43]: the IC50 in series [1] was found to be 39 nM. The molecule `Cc1nc(C)c(-c2csc(Nc3ccc(C(=O)N4C[C@H]5CC[C@@H](C4)O5)cn3)n2)s1` [Compound I-703] returned an IC50 in series [2] of 13 nM. This counts as double-digit nanomolar.

In series [2], `Cc1nc(C)c(-c2csc(Nc3ccc(C(=O)N4CCOc5ccccc54)cn3)n2)s1` [Compound I-831] showed an IC50 of 2.9 nM. Turning to `Cc1nc(C)c(-c2csc(Nc3ccc(OCc4ccc(Cl)cc4)cn3)n2)s1` [Compound I-312], the IC50 in series [1] was determined as 24 nM. The molecule `Cc1nc(C)c(-c2csc(Nc3ccc(CN4[C@@H]5CC[C@H]4COC5)cn3)n2)s1` [Compound I-799] returned an IC50 in series [2] of 6.3 nM. In turn, `CO[C@H]1C[C@H]2CC[C@@H](C1)N2C(=O)c1ccc(Nc2nc(-c3sc(C)nc3C)cs2)nc1` [Compound I-719] registered an IC50 in series [2] of 1.6 nM. In turn, `Cc1nc(C)c(-c2csc(Nc3ccc(/C=C/c4ccc(Cl)cc4)cn3)n2)s1` [Compound I-54] registered an IC50 in series [1] of 27 nM.

On to `CO[C@H]1C[C@H]2CC[C@@H](C1)N2C(=O)c1ccc(Nc2nc(-c3sc(C(N)=O)nc3C)cs2)nc1` [Compound I-118], for which the IC50 in series [1] turned out to be 9.1 nM. Against the preceding molecule, the IC50 is about 3-fold lower. On the same count and under the same terms, under `CC(=O)N(Cc1ccc(Nc2nc(-c3sc(C)nc3C)cs2)nc1)c1ccc(Cl)cc1F` [Compound I-49] stands 8.6 nM; under `Cc1nc(C)c(-c2csc(Nc3ccc(S(=O)(=O)Cc4ccc(Cl)cc4)cn3)n2)s1` [Compound I-17], 37 nM. For `CCN(CC)C(=O)N1C[C@H]2CC[C@@H](C1)N2C(=O)c1ccc(Nc2nc(-c3sc(C)nc3C)cs2)nc1` [Compound I-592], in series [2], the IC50 was determined as 3.9 nM. Same read-out and setting: as for `Cc1nc(C)c(-c2csc(Nc3ccc(C(=O)N4[C@@H]5CC[C@H]4COC5)c(F)n3)n2)s1` [Compound I-744], the figure is 4.2 nM. On to `Cc1nc(C(C)O)sc1-c1csc(Nc2ccc(CCOc3ccc(Cl)cc3F)cn2)n1` (centres unmarked) [Compound I-6], for which half-maximal inhibition in series [1] (IC50) required 52 nM.

For the molecule `Cc1nc(C)c(-c2csc(Nc3ccc(C(=O)N4[C@@H]5CC[C@H]4CSC5)cn3)n2)s1` [Compound I-843], the IC50 in series [2] was 2.6 nM. On to `CC(O)c1nc(CCO)c(-c2csc(Nc3ccc(CNc4ccc(Cl)cc4F)cn3)n2)s1` (centres unmarked) [Compound I-79], for which half-maximal inhibition in series [1] (IC50) required 27 nM. In other words, the double-digit nanomolar range. On to `COCCN(Cc1ccc(Nc2nc(-c3sc(C)nc3C)cs2)nc1)c1ccc(Cl)cc1F` [Compound I-184], for which half-maximal inhibition in series [1] (IC50) was put at 4 nM. The molecule `Cc1nc(C)c(-c2csc(Nc3ccc(C(C)Nc4ccc(Cl)cc4)cn3)n2)s1` (centres unmarked) [Compound I-188] yielded an IC50 in series [1] of 6.4 nM.
